Experimental data reported in ChEMBL document CHEMBL1129657, “Tetrahydrobenzothiophenone derivatives as a novel class of adenosine receptor antagonists” (J Med Chem, 1996).
Where “and” joins values, the source holds several entries; their conditions need not be identical. Equal entries are not always repeated.

Experiments:
[1] = target: Adenosine receptors; A1 & A2a (Rattus norvegicus) (UniProt P25099+P30543); assay: Selectivity for adenosine A2a and A1 receptors; format: protein assay
[2] = target: Adenosine receptor A2a (Rattus norvegicus) (UniProt P30543); assay: Displacement [3H]CGS-21680 from Adenosine A2A receptor in rat striatal membrane; format: cell membranes; design: concentration or dose not given beside the values; conditions: Striatum, concentration not given here
[3] = target: T1, Adenosine receptor A1 (Rattus norvegicus) (UniProt P25099); assay: Displacement of [3H]PIA from Adenosine A1 receptor of rat brain membrane at 10e-4 M
T1 sequence (whole entry): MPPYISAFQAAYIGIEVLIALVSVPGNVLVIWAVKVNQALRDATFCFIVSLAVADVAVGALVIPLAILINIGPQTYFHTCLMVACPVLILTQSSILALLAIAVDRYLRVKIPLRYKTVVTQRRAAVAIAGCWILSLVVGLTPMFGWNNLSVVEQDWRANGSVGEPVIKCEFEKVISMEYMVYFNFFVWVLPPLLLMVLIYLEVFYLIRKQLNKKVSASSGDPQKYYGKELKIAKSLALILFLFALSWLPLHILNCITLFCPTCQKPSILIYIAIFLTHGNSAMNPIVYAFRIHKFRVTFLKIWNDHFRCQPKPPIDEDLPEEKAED

Adenosine receptor A3 [4] = target: T2, Adenosine receptor A3 (Rattus norvegicus, UniProt P28647); assay: Displacement of [125I]AB-MECA from rat Adenosine A3 receptor expressed in CHO cell membrane; format: cell membranes
T2 sequence (P28647 whole entry): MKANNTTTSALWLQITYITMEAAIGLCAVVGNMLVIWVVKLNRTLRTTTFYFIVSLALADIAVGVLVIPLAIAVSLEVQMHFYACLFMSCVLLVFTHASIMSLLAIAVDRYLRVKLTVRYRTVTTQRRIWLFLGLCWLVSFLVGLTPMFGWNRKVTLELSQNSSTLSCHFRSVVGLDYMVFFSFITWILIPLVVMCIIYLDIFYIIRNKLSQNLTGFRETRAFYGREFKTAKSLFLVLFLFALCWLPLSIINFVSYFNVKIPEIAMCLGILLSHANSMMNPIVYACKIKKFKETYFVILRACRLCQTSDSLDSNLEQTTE

[5] = target: Adenosine A1 receptor (Rattus norvegicus) (UniProt P25099); assay: Selectivity for rat adenosine A3 and rat adenosine A1 receptors
Adenosine receptor A1 = target: T3, Adenosine receptor A1 (Rattus norvegicus, UniProt P25099); assay: Tested for the displacement [3H]PIA from Adenosine A1 receptor in rat brain membrane; format: cell membranes
T3 sequence (P25099 whole entry): T1 sequence (whole entry)

Adenosine receptor A2a [6] = target: T4, Adenosine receptor A2a (Rattus norvegicus, UniProt P30543)
Description: (§1) Displacement [3H]-CGS-21,680 from Adenosine A2A receptor in rat striatal membrane.

Adenosine receptor A3 [7] = target: T5, Adenosine receptor A3 (Homo sapiens, UniProt P0DMS8); assay: Displacement of [125I]AB-MECA from human Adenosine A3 receptor expressed in HEK293 cell membrane; format: cell membranes
T5 sequence (P0DMS8 whole entry): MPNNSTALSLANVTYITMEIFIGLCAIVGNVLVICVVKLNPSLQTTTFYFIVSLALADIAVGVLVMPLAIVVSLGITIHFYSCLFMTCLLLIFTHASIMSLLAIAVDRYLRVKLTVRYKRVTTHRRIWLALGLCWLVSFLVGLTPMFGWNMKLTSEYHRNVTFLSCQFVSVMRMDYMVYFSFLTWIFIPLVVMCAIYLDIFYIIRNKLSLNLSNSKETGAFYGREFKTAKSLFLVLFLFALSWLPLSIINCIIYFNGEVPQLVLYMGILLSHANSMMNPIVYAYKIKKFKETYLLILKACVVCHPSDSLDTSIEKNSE

[8] = target: T6, Adenosine receptor A3 (Homo sapiens) (UniProt P0DMS8); assay: Displacement of [125I]AB-MECA from human Adenosine A3 receptor expressed in HEK293 cell membrane at 10e-4 M; format: cell membranes
T6 sequence (whole entry): T5 sequence (P0DMS8 whole entry)

Adenosine receptor A2a [9] = target: T4, Adenosine receptor A2a; remark: listed apart in the source
Description: as §1

T4 sequence (P30543 whole entry): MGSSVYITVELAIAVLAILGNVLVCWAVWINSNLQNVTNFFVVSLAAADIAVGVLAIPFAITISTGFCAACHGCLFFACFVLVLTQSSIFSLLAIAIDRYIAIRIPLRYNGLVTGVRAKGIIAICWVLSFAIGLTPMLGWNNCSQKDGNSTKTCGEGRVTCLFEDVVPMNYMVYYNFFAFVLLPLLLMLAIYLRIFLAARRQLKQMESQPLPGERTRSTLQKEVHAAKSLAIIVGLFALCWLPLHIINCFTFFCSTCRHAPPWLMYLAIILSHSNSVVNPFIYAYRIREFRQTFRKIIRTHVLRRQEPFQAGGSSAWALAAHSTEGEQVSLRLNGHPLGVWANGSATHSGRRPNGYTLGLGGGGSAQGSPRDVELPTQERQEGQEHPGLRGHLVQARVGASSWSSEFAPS
Adenosine receptor A2a (Rattus norvegicus), sequence (P30543 whole entry): as above
Adenosine receptors; A1 & A2a (Rattus norvegicus), sequence (P30543 whole entry, looked up, one chain of several): as the sequence (P30543 whole entry) above

| SMILES | Selectivity [1] | Ki (Adenosine receptor A1) | Ki (Adenosine receptor A2a [6]) [µM] | also measured |
| --- | --- | --- | --- | --- |
| CSc1scc2c1C(=O)CCC2 | > 1 |  |  | inhibition [2]: < 10%; inhibition [3]: 28% |
| CCOC(=O)c1sc(S(C)(=O)=O)c2c1CC(C)(C)CC2=O | > 3.1 | 32.7 µM |  | Ki (Adenosine receptor A3 [4]): 51.8 µM; Selectivity [5]: 1.58; inhibition [2]: 13% |
| Nc1nc2ccc(Cl)cc2n2c(-c3ccccc3)nnc12 |  |  | 0.021 |  |
| O=c1c(-c2ccc(O)cc2)coc2cc(O)cc(O)c12 [GENISTEIN] |  |  | 36 |  |
| Nc1nc2ccc(Cl)cc2c2nc(-c3ccco3)nn12 [CGS-15943] |  |  | 3.3 |  |
| Nc1nc2ccccc2n2cc(-c3ccccc3)nc12 |  | 0.034 µM | 0.29 |  |
| CSc1sc(C(=O)NN)c2c1C=CCC2 | > 1.9 | 51.6 µM |  | Ki (Adenosine receptor A3 [4]): 13.1 µM; Selectivity [5]: 0.25; inhibition [2]: < 10% |
| COc1cc(-c2oc3c(OC)cc(CCCO)cc3c2C=O)ccc1O |  | 0.017 µM |  |  |
| CSc1sc(C(=O)NN)c2c1C(O)CCC2 (stereo not drawn) | > 1.4 | 71.2 µM |  | inhibition [2]: 28.9% |

Continued, in another order:

| Selectivity [1] | Ki (Adenosine receptor A1) | Ki (Adenosine receptor A2a [6]) [µM] | SMILES | also measured |
| --- | --- | --- | --- | --- |
| 11.5 | 2.22 µM | 25.6 | CCOC(=O)CSc1sc(C(=O)OCC)c2c1C(=O)CCC2 | Ki (Adenosine receptor A3 [4]): 10.2 µM; Selectivity [5]: 4.59 |
| 1.8 | 18.3 µM | 33.5 | CCOC(=O)c1sc(SC)c2c1CCCC2O (stereo not drawn) | Ki (Adenosine receptor A3 [4]): 15.4 µM; Selectivity [5]: 0.84; Ki (Adenosine receptor A3 [7]): 35.8 µM |
| 29.1 | 3.64 µM | 106 | CCOC(=O)c1sc(SC(C)CC)c2c1CC(C)(C)CC2=O (stereo not drawn) |  |
| > 17.6 | 0.567 µM |  | CCOC(=O)c1sc(SCc2ccccc2)c2c1CC(C)(C)CC2=O | inhibition [2]: 34% |
| 11 | 1.42 µM | 15.6 | CCCCSc1sc(C(=O)OCC)c2c1C(=O)CCC2 |  |
| 3.7 | 1.26 µM | 4.69 | CCCSc1sc(C(=O)OCC)c2c1C(=O)CCC2 |  |
| 0.3 | 50 µM | 15.2 | O=C(O)c1sc(SCc2ccccc2)c2c1CCCC2=O | Ki (Adenosine receptor A3 [4]): 42 µM; Ki (Adenosine receptor A3 [7]): 117 µM |
| 2.1 | 17.5 µM | 36.1 | CCOC(=O)c1sc(NN)c2c1CCCC2=O |  |
| 5.7 | 1.06 µM | 6.04 | C=CCSc1sc(C(=O)OCC)c2c1C(=O)CCC2 |  |
| > 1.4 | 69.8 µM |  | CCOC(=O)c1sc(SC)c2c1CCC/C2=N/OC | inhibition [2]: 22% |
|  |  | 23.9 | CCOC(=O)c1sc(SCC)c2c1CC(C)(C)CC2=O |  |
| 1.9 | 0.72 µM and 0.715 µM | 1.36 | CCOC(=O)c1sc(SCc2ccccc2)c2c1CCCC2=O | inhibition [8]: 24%; Ki (Adenosine receptor A2a [9]): 1.36 µM |
| 2.6 | 1.79 µM | 4.63 | CCOC(=O)c1sc(SC(C)C)c2c1CCCC2=O |  |
| 1.9 | 1.93 µM | 3.66 | CCOC(=O)c1sc(SC)c2c1CCCC2=O | Ki (Adenosine receptor A3 [4]): 15.2 µM; Selectivity [5]: 7.88 |
